Several values for one entry are separate records, joined by “and”; a condition that tells them apart may be missing. Identical values can stand only once.

The assay has as its system β-toxin production by Clostridium perfringens. The format is cell-based. On the set-up: mean total toxin production: unit not given here.
With KPLDV: pentapeptide, the toxin per cell entry was “increased toxin per cell above the mean”.

With MHAPP: pentapeptide, the toxin per cell result is reported as “increased toxin per cell above the mean”.

For the substance YEYIG: pentapeptide, the “total toxin mean value” is given as “greater than twice that obtained using 3.5% hydrolysate alone”.

For SVMEM: pentapeptide, the toxin per cell result is recorded as “increased toxin per cell above the mean”.

VHVYQ: pentapeptide: the toxin production result is listed as “toxin production above the mean obtained in 0.5% hydrolysate media”.

As to YEQQN: pentapeptide, the toxin per cell result is “increased toxin per cell above the mean”.

Take VEFTN: pentapeptide: the toxin per cell result is “increased toxin per cell above the mean”.

With GGMPG: pentapeptide, the toxin per cell result was “increased toxin per cell above the mean”.

As for FEFVG: pentapeptide, the “amount of toxin produced per cell” value was “doubled”; the “mean total toxin production” value is 8.79 and 8.787; the “total toxin in the two-point ELISA over optimized base medium alone” value is given as “about 2.2 ×”; the “total toxin produced by the culture” value is reported as “near doubling”.

Regarding HAPAY: pentapeptide, the toxin per cell entry is “increased toxin per cell above the mean”.

YEYIY: pentapeptide: the toxin per cell result was “increased toxin per cell above the mean”.

For the substance FSFVE: pentapeptide, the “mean total toxin production” value came to 8.727.

For the substance DKAL: tetrapeptide, the “total toxin ratio (total toxin with test peptide divided by base media total toxin)” value is recorded as “increased the total toxin ratio”.

Take LPDLF: pentapeptide: the toxin per cell result is “increased toxin per cell above the mean”.

Consider VNVQA: pentapeptide, for which the toxin per cell result is on record as “increased toxin per cell above the mean”.

As for PLFEQ: pentapeptide, the toxin per cell result is reported as “increased toxin per cell above the mean”.

As to LADTF: pentapeptide, the toxin per cell result was “increased toxin per cell above the mean”.

Regarding NEYLY: pentapeptide, the “mean total toxin production” value is given as 8.665.

On to LSFIE: pentapeptide, for which the toxin per cell entry is “increased toxin per cell above the mean”.

For KFIEK: pentapeptide, the toxin per cell result is given as “increased toxin per cell above the mean”.

As for MPNNF: pentapeptide, the toxin per cell result was “increased toxin per cell above the mean”.

For the substance SQLEL: pentapeptide, the “mean total toxin production” value worked out at 8.284.

As to FMSTA: pentapeptide, the toxin per cell result is “increased toxin per cell above the mean”.

Take DKTNG: pentapeptide: the toxin per cell entry was “increased toxin per cell above the mean”.

In the case of FSLLE: pentapeptide, the “mean total toxin production” value is 8.855.

For LSAL: tetrapeptide, the toxin production entry is on record as “significantly inhibited toxin production”.

Regarding KFIFE: pentapeptide, the toxin per cell result is recorded as “increased toxin per cell above the mean”.

Take GDYVS: pentapeptide: the toxin per cell result is reported as “increased toxin per cell above the mean”.

In the case of NNNNN: pentapeptide, the toxin production result is on record as “toxin production above the mean obtained in 0.5% hydrolysate media”.

With VDLLG: pentapeptide, the toxin per cell result was “increased toxin per cell above the mean”.

As for EKALE: pentapeptide, the toxin per cell result is reported as “increased toxin per cell above the mean”.

KTVGI: pentapeptide: the toxin per cell entry is reported as “increased toxin per cell above the mean”.

Turning to MMELE: pentapeptide, the toxin per cell entry is “increased toxin per cell above the mean”.

In the case of ELSPH: pentapeptide, the toxin per cell result was “increased toxin per cell above the mean”.

Turning to YENLY: pentapeptide, the toxin per cell result is given as “increased toxin per cell above the mean”.

Consider NLTEL: pentapeptide, for which the “mean total toxin production” value is given as 8.321.

IKLAS: pentapeptide: the “mean total toxin production” value turned out to be 7.7475.

Take FVPEK: pentapeptide: the toxin per cell result is “increased toxin per cell above the mean”.

In the case of HTVEL: pentapeptide, the “beta toxin accumulation in the culture supernatant” value was “enhance beta toxin accumulation” and the toxin per cell result was “increased toxin per cell above the mean”.

For the substance DMLQT: pentapeptide, the toxin per cell entry is “increased toxin per cell above the mean”.

For NEGLG: pentapeptide, the toxin per cell result was “increased toxin per cell above the mean”.

Take PELME: pentapeptide: the toxin per cell result is given as “increased toxin per cell above the mean”.

In the case of SYIME: pentapeptide, the toxin per cell result was “increased toxin per cell above the mean”.

As for ETVNF: pentapeptide, the toxin per cell entry is “increased toxin per cell above the mean”.

In the case of ALFHE: pentapeptide, the toxin per cell entry is “increased toxin per cell above the mean”.

As to NQLEV: pentapeptide, the “mean total toxin production” value came to 7.81.

In the case of QNDVY: pentapeptide, the “beta toxin accumulation in the culture supernatant” value is given as “enhance beta toxin accumulation” and the toxin per cell entry is given as “increased toxin per cell above the mean”.

On to ETLNL: pentapeptide, for which the “mean total toxin production” value is given as 8.28.

For DTHHI: pentapeptide, the toxin per cell result is on record as “increased toxin per cell above the mean”.

As to SNGIY: pentapeptide, the toxin per cell entry was “increased toxin per cell above the mean”.

In the case of FDIST: pentapeptide, the “mean total toxin production” value is listed as 8.395.

Take FEFGV: pentapeptide: the toxin per cell result is “increased toxin per cell above the mean”.

In the case of TKPFF: pentapeptide, the toxin per cell result is reported as “increased toxin per cell above the mean”.

ESLQM: pentapeptide: the toxin per cell result is “increased toxin per cell above the mean”.

In the case of GYPEV: pentapeptide, the toxin per cell entry was “increased toxin per cell above the mean”.

The record behind these values is patent publication US7267983B2 (priority 2000, dated 2007).
